Test results: PubChem BioAssay AID1919015 (Molecular Pharmacology Branch, DTP, NCI, 2023)

Tested on: OVCAR-5 complex spheroids with HUVEC/MSC, viability, % test/control
Assay: Anticancer human tumor OVCAR-5 cell line growth inhibition [AhR];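 also: spheroids exposed to compounds for 7 days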;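 as to viability, T/C: 100% = DMSO vehicle control wells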
Conditions: for IC50: curve of first compound; for viability, T/C: stronger effect = lower value
In short: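 Spheroids combined tumor cells with HUVEC endothelial cells and human MSCs as stroma. AhR antagonists were paired with standard or investigational drugs, each dosed in half-log steps down from near clinical Cmax, or from 10 microM where Cmax was unknown.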

[1] = second compound 0.1 µM, first compound 0.0316 µM
[2] = second compound 0.1 µM, first compound 0.1 µM
[3] = second compound 0.316 µM, first compound 0.0316 µM
[4] = second compound 0.316 µM, first compound 0.1 µM
[5] = second compound 1 µM, first compound 0.0316 µM
[6] = second compound 1 µM, first compound 0.1 µM
[7] = second compound 3.16 µM, first compound 0.0316 µM
[8] = second compound 3.16 µM, first compound 0.1 µM
[9] = second compound 10 µM, first compound 0.0316 µM
[10] = second compound 10 µM, first compound 0.1 µM

SMILES: CC[C@@]1(O)C(=O)OCc2c1cc1n(c2=O)Cc2cc3c(CN(C)C)c(O)ccc3nc2-1 + Cc1ccccc1N=Nc1ccc(NC(=O)c2ccnn2C)c(C)c1
- IC50 (second compound 0.1 µM): 22.9 nM
- IC50 (second compound 0.316 µM): 24.3 nM
- IC50 (second compound 1 µM): 25.3 nM
- IC50 (second compound 3.16 µM): 27.5 nM
- IC50 (second compound 10 µM): 28.2 nM
- viability, T/C (second compound 0.1 µM, first compound 0.000316 µM): 103%
- viability, T/C (second compound 0.1 µM, first compound 0.001 µM): 102%
- viability, T/C (second compound 0.1 µM, first compound 0.00316 µM): 94%
- viability, T/C (second compound 0.1 µM, first compound 0.01 µM): 79.2%
- viability, T/C [1]: 34.7%
- viability, T/C [2]: 42.4%
- viability, T/C (second compound 0.316 µM, first compound 0.000316 µM): 105%
- viability, T/C (second compound 0.316 µM, first compound 0.001 µM): 103%
- viability, T/C (second compound 0.316 µM, first compound 0.00316 µM): 96%
- viability, T/C (second compound 0.316 µM, first compound 0.01 µM): 84.6%
- viability, T/C [3]: 36.5%
- viability, T/C [4]: 42.7%
- viability, T/C (second compound 1 µM, first compound 0.000316 µM): 112%
- viability, T/C (second compound 1 µM, first compound 0.001 µM): 108%
- viability, T/C (second compound 1 µM, first compound 0.00316 µM): 104%
- viability, T/C (second compound 1 µM, first compound 0.01 µM): 89.3%
- viability, T/C [5]: 38.7%
- viability, T/C [6]: 42.4%
- viability, T/C (second compound 3.16 µM, first compound 0.000316 µM): 113%
- viability, T/C (second compound 3.16 µM, first compound 0.001 µM): 110%
- viability, T/C (second compound 3.16 µM, first compound 0.00316 µM): 108%
- viability, T/C (second compound 3.16 µM, first compound 0.01 µM): 92%
- viability, T/C [7]: 41%
- viability, T/C [8]: 47.4%
- viability, T/C (second compound 10 µM, first compound 0.000316 µM): 100%
- viability, T/C (second compound 10 µM, first compound 0.001 µM): 104%
- viability, T/C (second compound 10 µM, first compound 0.00316 µM): 101%
- viability, T/C (second compound 10 µM, first compound 0.01 µM): 89%
- viability, T/C [9]: 40.9%
- viability, T/C [10]: 50.4%

SMILES: Nc1ccn(C2OC(CO)C(O)C2(F)F)c(=O)n1 (stereo not given) + Cc1ccccc1N=Nc1ccc(NC(=O)c2ccnn2C)c(C)c1
- IC50 (second compound 0.1 µM): < 31.6 nM
- IC50 (second compound 0.316 µM): < 31.6 nM
- IC50 (second compound 1 µM): < 31.6 nM
- IC50 (second compound 3.16 µM): < 31.6 nM
- IC50 (second compound 10 µM): < 31.6 nM
- viability, T/C [1]: 27.7%
- viability, T/C [2]: 25.4%
- viability, T/C (second compound 0.1 µM, first compound 0.316 µM): 26.3%
- viability, T/C (second compound 0.1 µM, first compound 1 µM): 27.4%
- viability, T/C (second compound 0.1 µM, first compound 3.16 µM): 28.5%
- viability, T/C (second compound 0.1 µM, first compound 10 µM): 28.1%
- viability, T/C [3]: 27.5%
- viability, T/C [4]: 25.3%
- viability, T/C (second compound 0.316 µM, first compound 0.316 µM): 26.4%
- viability, T/C (second compound 0.316 µM, first compound 1 µM): 26.9%
- viability, T/C (second compound 0.316 µM, first compound 3.16 µM): 29%
- viability, T/C (second compound 0.316 µM, first compound 10 µM): 29.1%
- viability, T/C [5]: 29.7%
- viability, T/C [6]: 27.1%
- viability, T/C (second compound 1 µM, first compound 0.316 µM): 26.7%
- viability, T/C (second compound 1 µM, first compound 1 µM): 27.1%
- viability, T/C (second compound 1 µM, first compound 3.16 µM): 28%
- viability, T/C (second compound 1 µM, first compound 10 µM): 27.9%
- viability, T/C [7]: 28.9%
- viability, T/C [8]: 27.2%
- viability, T/C (second compound 3.16 µM, first compound 0.316 µM): 27.1%
- viability, T/C (second compound 3.16 µM, first compound 1 µM): 28.2%
- viability, T/C (second compound 3.16 µM, first compound 3.16 µM): 29.3%
- viability, T/C (second compound 3.16 µM, first compound 10 µM): 29.2%
- viability, T/C [9]: 31.6%
- viability, T/C [10]: 29.2%
- viability, T/C (second compound 10 µM, first compound 0.316 µM): 31.9%
- viability, T/C (second compound 10 µM, first compound 1 µM): 31.1%
- viability, T/C (second compound 10 µM, first compound 3.16 µM): 32.2%
- viability, T/C (second compound 10 µM, first compound 10 µM): 31%
